Test results from patent US20190352276A1, “INHIBITORS OF BRUTON'S TYROSINE KINASE” (Joint Stock Company "Biocad", priority 2016, published 2019).

Experiment: Chemical stability in artificial gastric fluid (SGF without enzymes); note: time not given here
Settings: 10 μM in SGF without enzymes, pH=1.4, 37° C.

SMILES	Amount of substance in the sample in % (chemical stability) [%]
C=CC(=O)N1CCC[C@@H](n2nc(-c3ccc(C(=O)Nc4ccccn4)cc3)c3cncc(Cl)c32)C1 [BCD-BTK -201]	100
C=CC(=O)N1CCC[C@@H](n2nc(-c3ccc(Oc4ccncc4C#N)cc3)c3cncc(Cl)c32)C1 [BCD-BTK -202, (R)-4-(4-(1-(1-acryloylpiperidin-3-yl)-7-chloro-1H-pyrazolo[4,3-c]pyridin-3-yl)phenoxy)nicotinonitrile]	95.5
C=CC(=O)N1CCC[C@@H](n2nc(-c3ccc(Oc4ccncc4C(N)=O)cc3)c3cncc(Cl)c32)C1 [BCD-BTK -203, (R)-4-(4-(1-(1-acryloylpiperidin-3-yl)-7-chloro-1H-pyrazolo[4,3-c]pyridin-3-yl)phenoxy)nicotinamide]	100
C=CC(=O)N1CCC[C@@H](n2nc(-c3ccc(-n4ccc(=O)cc4)cc3F)c3cncc(Cl)c32)C1 [BCD-BTK -204, (R)-1-(4-(1-(1-acryloylpiperidin-3-yl)-7-chloro-1H-pyrazolo[4,3-c]pyridin-3-yl)-3-fluorophenyl)pyridin-4(1H)-one]	100
C=CC(=O)N1CCC[C@@H](n2nc(-c3ccc(-n4ccc(=O)cc4)c(F)c3)c3cncc(Cl)c32)C1 [BCD-BTK -205, (R)-1-(4-(1-(1-acryloylpiperidin-3-yl)-7-chloro-1H-pyrazolo[4,3-c]pyridin-3-yl)-2-fluorophenyl)pyridin-4(1H)-one]	100
C=CC(=O)N1CCC[C@@H](n2nc(-c3ccc(C(=O)Nc4cc(C(F)(F)F)ccn4)cc3)c3cncc(Cl)c32)C1 [BCD-BTK -210, (R)-4-(1-(1-acryloylpiperidin-3-yl)-7-chloro-1H-pyrazolo[4,3-c]pyridin-3-yl)-N-(4-(trifluoromethyl)pyridin-2-yl)benzamide]	96.1

The remaining lines, values ahead:

Amount of substance in the sample in % (chemical stability) [%]	SMILES
100	C=CC(=O)N1CCC[C@@H](n2nc(-c3cnc(-n4ccc(=O)c(C#N)c4)nc3)c3cncc(Cl)c32)C1 [BCD-BTK -206, (R)-1-(5-(1-(1-acryloylpiperidin-3-yl)-7-chloro-1H-pyrazolo[4,3-c]pyridin-3-yl)pyrimidin-2-yl)-4-oxo-1,4-dihydropyridine-3-carbonitrile]
100	C=CC(=O)N1CCC[C@@H](n2nc(-c3cnc(-n4ccc(=O)c(C(N)=O)c4)nc3)c3cncc(Cl)c32)C1 [BCD-BTK -207, (R)-1-(5-(1-(1-acryloylpiperidin-3-yl)-7-chloro-1H-pyrazolo[4,3-c]pyridin-3-yl)pyrimidin-2-yl)-4-oxo-1,4-dihydropyridine-3-carboxamide]
100	C=CC(=O)N1CCC[C@@H](n2nc(-c3ccc(-n4ccc(=O)c(C#N)c4)cc3)c3cncc(Cl)c32)C1 [BCD-BTK -208, (R)-1-(4-(1-(1-acryloylpiperidin-3-yl)-7-chloro-1H-pyrazolo[4,3-c]pyridin-3-yl)phenyl)-4-oxo-1,4-dihydropyridine-3-carbonitrile]
100	C=CC(=O)N1CCC[C@@H](n2nc(-c3ccc(Oc4ccncc4)cc3)c3cncc(F)c32)C1 [BCD-BTK -211, (R)-1-(3-(7-fluoro-3-(4-(pyridin-4-yloxy)phenyl)-1H-pyrazolo[4,3-c]pyridin-1-yl)piperidin-1-yl)prop-2-en-1-one]
100	C=CC(=O)N1CCC[C@@H](n2nc(-c3ccc(C(=O)Nc4ccc(F)cn4)cc3)c3cncc(Cl)c32)C1 [BCD-BTK -212, (R)-4-(1-(1-acryloylpiperidin-3-yl)-7-chloro-1H-pyrazolo[4,3-c]pyridin-3-yl)-N-(5-fluoropyridin-2-yl)benzamide]
97.4	C=CC(=O)N1CCC[C@@H](n2nc(-c3ccc(Oc4ccncc4C#N)cc3)c3cncc(C#N)c32)C1 [BCD-BTK -213, (R)-1-(1-acryloylpiperidin-3-yl)-3-(4-(3-cyanopyridin-4-yloxy)phenyl)-1H-pyrazolo[4,3-c]pyridine-7-carbonitrile]
